What was measured:
[1] = test system: response time to radiated heat focused on the tail (rat tail flick); assay: Rat Tail Flick Test; type: in vivo, male, Sprague-Dawley rats; details: for average response time, 1 Hr. / Activity - Increase in Response Time (2 Hrs.) / average response time, 2 Hrs. / average response time, 3 Hrs.: p.o.
Protocol: In this test, groups of 10 male, Sprague-Dawley rats, weighing 142-170 g. were orally (p.o.) gavaged with compound (V) after the average normal response time to radiated heat focused on the tail had been established by two trials. Response times were recorded hourly for 3 hours after the administration of the compound. The activity was determined as the percent increase in response time over the average normal response for the response for the respective group. An ED50 value representing the dose producing a 50% increase in average response time was calculated by a linear regression program.

[2] = test system: acetic acid writhing response; assay: Mouse (Acetic Acid) Writhing Test; type: in vivo, female, ICR mice; details: for Activity % Inhibition / Ave. Number of Writhes (20 min.): p.o., one hour before acetic acid; for Ave. Number of Writhes (20 min.): controls 55.0
Protocol: In this test, groups of 5 female, ICR mice (Schmidt) weighing 19-25 g. were orally (p.o.) gavaged with compound (V) one hour prior to the intraperitoneal injection of 0.4 ml. of acetic acid 0.5% (v/v). Five minutes after the acid injection, the number of writhing responses over a 20 minute period were counted. One group received an oral dose of vehicle only to serve as controls. Activity was determined as the percent difference (inhibition) between the average number of writhes for the test groups as compared to the controls. An ED50 value representing the dose producing a 50% inhibition of the writhing response was calculated by a linear regression program.

[3] = test system: methamphetamine-induced hyperactivity in rats; assay: Rat Desoxyn Antagonism Test; type: in vivo; details: methamphetamine 1 mg./kg., i.p.
Protocol: In this test, the antagonism or potentiation of methamphetamine-induced hyperactivity in rats was evaluated in motor activity chambers equipped with photocells (Lehigh Valley, Model #1497). Groups of rats were premedicated with Compound (V) and then administered methamphetamine (1 mg./kg., i.p.). One rat was placed in each chamber and three rats were used per test dose. Effect was recorded as percent change in counts from the photocells compared to methamphetamine-treated controls.

Q: Which results are given for `CC(CCCc1ccc(F)cc1)c1cc(O)c2c(c1)OC(C)(C)C1=C2CN(CC(=O)NC(N)=O)CC1` (centres unmarked) [Compound V, {{8-[5-(4-Fluorophenyl)-2-pentyl]-10-hydroxy-5,5-dimethyl-1,2,3,4-tetrahydro-5H-[1]benzopyrano[4,3-c]pyridin-2-yl}acetyl}urea]?
A: average response time, 1 Hr. ([1]; 1.0 mg./kg., Normal 8.03): 9.03 s; Activity - Increase in Response Time (2 Hrs.) ([1]; 1.0 mg./kg., 2 hrs): 30.0%; average response time, 2 Hrs. ([1]; 1.0 mg./kg., 2 hrs, Normal 8.03): 10.44 s; average response time, 3 Hrs. ([1]; 1.0 mg./kg., Normal 8.03): 11.22 s; average response time, 1 Hr. ([1]; 2.0 mg./kg., Normal 6.80): 8.92 s; Activity - Increase in Response Time (2 Hrs.) ([1]; 2.0 mg./kg., 2 hrs): 56.0%; average response time, 2 Hrs. ([1]; 2.0 mg./kg., 2 hrs, Normal 6.80): 10.61 s; average response time, 3 Hrs. ([1]; 2.0 mg./kg., Normal 6.80): 10.99 s; average response time, 1 Hr. ([1]; 4.0 mg./kg., Normal 8.30): 11.13 s; Activity - Increase in Response Time (2 Hrs.) ([1]; 4.0 mg./kg., 2 hrs): 95.2%; average response time, 2 Hrs. ([1]; 4.0 mg./kg., 2 hrs, Normal 8.30): 16.20 s; average response time, 3 Hrs. ([1]; 4.0 mg./kg., Normal 8.30, average includes maximum values (30 seconds cut-off time)): 16.98 s; average response time, 1 Hr. ([1]; 8.0 mg./kg., Normal 7.97, average includes maximum values (30 seconds cut-off time)): 13.63 s; Activity - Increase in Response Time (2 Hrs.) ([1]; 8.0 mg./kg., 2 hrs): 98.6%; average response time, 2 Hrs. ([1]; 8.0 mg./kg., 2 hrs, Normal 7.97, average includes maximum values (30 seconds cut-off time)): 15.83 s; average response time, 3 Hrs. ([1]; 8.0 mg./kg., Normal 7.97): 14.32 s; ED50 ([1]; Rattus norvegicus, po, 2 hrs, dose producing 50% increase in average response time, linear regression, (0.02, 3.19) printed after value): 1.6 mg/kg; Activity % Inhibition ([2]; 0.5 mg./kg.): 48.4%; Ave. Number of Writhes (20 min.) ([2]; 0.5 mg./kg.): 28.4; Activity % Inhibition ([2]; 1.0 mg./kg.): 50.2%; Ave. Number of Writhes (20 min.) ([2]; 1.0 mg./kg.): 27.4; Activity % Inhibition ([2]; 2.0 mg./kg.): 72.4%; Ave. Number of Writhes (20 min.) ([2]; 2.0 mg./kg.): 15.2; Activity % Inhibition ([2]; 4.0 mg./kg.): 89.1%; Ave. Number of Writhes (20 min.) ([2]; 4.0 mg./kg.): 6.0; ED50 ([2]; Mus musculus, po, dose producing 50% inhibition of writhing response, linear regression, (0.4, 1.0) printed after value): 0.7 mg/kg; % Decreased Activity Over Control ([3]; oral dose 5 mg./kg.): 75%; % Decreased Activity Over Control ([3]; oral dose 20 mg./kg.): 93%; % Decreased Activity Over Control ([3]; oral dose 80 mg./kg.): 84%

— US4172943A, “(8-Substituted-10-hydroxy-5,5-dimethyl-1,2 ,3,4-tetrahydro-5H-(1)benzopyrano(4,3-C)pyridin-2-yl)acetyl ureas and derivatives” (Abbott Laboratories, priority 1978, dated 1979)
